US20220332763A1, “FUSED POLYPEPTIDE AND USE THEREOF” (NANJING ANJI BIOLOGICAL TECHNOLOGY CO., LTD., priority 2019, published 2022)
Where no end group is shown, it is not given here.

Tests used:
TGF-β1 = test: Renal fibrosis animal model (ureter ligation), TGF-β1 in serum; format: in vivo; details: SD rats with renal fibrosis; 7.5 mg/kg subcutaneous twice a day, 14 days; FIG. 3
Procedure: A renal fibrosis animal model was established. SD rats were anesthetized with 4% chloral hydrate, injected with 1 mL/100 g intraperitoneally, fixed to an operation board, and sterilized in an operation area for later use. […] Muscular layers and abdominal walls were sewed layer by layer, the suture was disinfected with alcohol. After SD rats woke up, the rats were put into a cage for feeding. In the blank group, ureter was not ligated, and other steps were the same.
Then, the animals fell into a blank group, a model group, and polypeptide administration groups, with 10 animals in each group, and the administration was started on the second day after the operation, twice a day for 14 days. After administration for 14 days, blood was taken and supernatant was taken to detect the content of TGF-β1 in serum.

[1] = test system: LX-2 hepatic stellate cells; test: In vitro hepatic fibrosis model, MTT assay; format: cell-based; details: 1 μmol/L; for Inhibition of proliferation (in words): 24 hours and 48 hours, Example 2; for Optical density value, 12 h / Optical density value, 24 h / Optical density value, 48 h: LX-2 cells, MTT, OD at 570 nm; for Optical density value, 12 h: blank group 0.456 ± 0.012; for Optical density value, 24 h: blank group 0.548 ± 0.01; for Optical density value, 48 h: blank group 0.812 ± 0.016
Procedure: (§1) The inhibitory effect of a polypeptide on LX-2 hepatic stellate cells was detected by MTT assay. Cells were cultured in a 1640 medium containing 10% of FBS, the […] was made into 4×10^5/mL cell suspension, and 100 μL per well was inoculated into a 96-well plate. After the cells adhered to the wall, the medium was replaced with a serum-free 1640 medium, and the serum-free medium was discarded after 24 hours. The cells were cultured with different polypeptides of 1 μmol/L, and 5 multiple wells were set for each concentration. After 12, 24 and 48 hours separately, 10 μL of MTT was added to each well. After 4 hours, MTT was sucked out, and 150 μL of DMSO was added to each well. After reaction for 5 min, an OD value was measured at 570 nm by a microplate reader.

HYP = test: Bleomycin skin fibrosis model, HYP content in skin tissue; format: in vivo, C57/BL black mice; details: bleomycin skin fibrosis mice; 10 mg/kg subcutaneous twice a day, 28 days; FIG. 4
Procedure: Bleomycin (10 μg/mL) was injected subcutaneously every day for 28 days to form skin fibrosis. During the modeling period, the administration groups were given polypeptide drugs twice a day for treatment. After modeling, the mice were killed on the next day, and the skin tissue of the mouse back was taken to detect the content of HYP in the skin tissue.

[2] = test system: SD rats with bleomycin-induced pulmonary fibrosis; test: Bleomycin-induced pulmonary fibrosis animal model; format: in vivo; details: for Survival rate (%): dosage 10 mg/kg in Table 2, administration 14 days, model group 50
Procedure: SD rats were anesthetized by intraperitoneal injection of 1 mL/100 g 4% chloral hydrate. After anesthesia, the rats were fixed and their necks were disinfected by using cotton with 75% alcohol. The skin of the rat neck was longitudinally cut with scissors, and the fascia and muscle were longitudinally bluntly torn with tweezers to expose the trachea. A syringe was inserted into the trachea to inject 5 mg/kg bleomycin, while a blank group was injected with an equal amount of normal saline. Then a rat plate was quickly erected and rotated, the rats' breathing was observed, the neck wound was sterilized after rotation and was sewn, and an amoxicillin anti-inflammatory drug was sprinkled on the suture. After the operation, the rats were put back into a dry and clean cage for resting, waiting was performed for awakening. The rats were awakened after about 1-2 hours, and then fed normally. On the 7th day after modeling, modeling group animals randomly fell into a model group, a Nintedanib positive drug group, polypeptide I, II, III, IV, V, VI dosage groups, and a normal control group, and the groups were administered separately for an administration cycle of 14 days. Living situations of rats were observed every day and their weights were weighed. After administration for 14 days, the SD rats were dissected, the lung tissue was taken, and the right lung tissue was placed in a tissue fixative only for fixation, and HE staining and Masson staining and slice analysis were performed.

[3] = test system: cardiac fibroblasts of rats; test: Myocardial fibrosis model, MTT assay; format: cell-based; details: 1 μmol/L; for Inhibition of proliferation of cardiac fibroblasts of rats (in words): 24 hours and 48 hours; for Optical density value, 12 h / Optical density value, 24 h / Optical density value, 48 h: cardiac fibroblasts of rats, MTT, OD at 570 nm; for Optical density value, 12 h: blank group 0.353 ± 0.001; for Optical density value, 24 h: blank group 0.464 ± 0.018; for Optical density value, 48 h: blank group 0.896 ± 0.001
Procedure: as §1, with “cardiac fibroblasts of rats” for “LX-2 hepatic stellate cells”, “DMEM” for “1640”, “1×10^5/mL” for “4×10^5/mL”

Ovarian cancer = test: cells; details: Homo sapiens, 48 h, read-out: Inhibitory effect (%) on tumor growth
Procedure: (§2) A plurality of types of human tumor cells were cultured in a 5% CO2 incubator at 37° C. and digested with trypsin when the density was 90% or above. The cells were resuspended in a culture solution and counted, and the cell concentration was adjusted to 2×10^4 cells/mL. The cell suspension was inoculated into a 96-well plate with 100 μL per well, and then cultured overnight in a 5% CO2 incubator at 37° C. After the cells completely adhered to the wall, each polypeptide according to the present invention was added as an administration group, and the culture solution without any drug was used as a blank control group. The solutions were diluted to 1 μmol/L by using a diluent. Each diluent was separately added to the 96-well plate with 100 per well, and the cells continued to be cultured in a 5% CO2 incubator for 48 hours at 37° C. Then 20 μL of MTT was added, and the cells continued to be cultured for 4 hours. The medium was sucked, and 100 μL of DMSO was added to each well for dissolution. Absorbance was measured by a microplate reader at a detection wavelength of 570 nm and a reference wavelength of 630 nm, and the growth inhibition rate was calculated. The formula was as follows: tumor growth inhibition rate (%)=(1−absorbance of the administration group/absorbance of the blank group)*100%. The experiment was repeated independently for 3 times.

Uterus cancer = test: tissue or blood; details: Homo sapiens, 48 h, read-out: Inhibitory effect (%) on tumor growth
Procedure: as §2

Brain cancer = test: cells; details: Homo sapiens, 48 h, read-out: Inhibitory effect (%) on tumor growth
Procedure: as §2

Melanoma = test: cells; details: Homo sapiens, 48 h, read-out: Inhibitory effect (%) on tumor growth
Procedure: as §2

Kidney cancer = test: cells; details: Homo sapiens, 48 h, read-out: Inhibitory effect (%) on tumor growth
Procedure: as §2

Pancreatic cancer = test: cells; details: Homo sapiens, 48 h, read-out: Inhibitory effect (%) on tumor growth
Procedure: as §2

Thyroid cancer = test: cells; details: Homo sapiens, 48 h, read-out: Inhibitory effect (%) on tumor growth
Procedure: as §2

Esophageal cancer = test: cells; details: Homo sapiens, 48 h, read-out: Inhibitory effect (%) on tumor growth
Procedure: as §2

Breast cancer = test: cells; details: Homo sapiens, 48 h, read-out: Inhibitory effect (%) on tumor growth
Procedure: as §2

Gastric cancer = test: cells; details: Homo sapiens, 48 h, read-out: Inhibitory effect (%) on tumor growth
Procedure: as §2

Colorectal cancer = test: cells; details: Homo sapiens, 48 h, read-out: Inhibitory effect (%) on tumor growth
Procedure: as §2

Liver cancer = test: cells; details: Homo sapiens, 48 h, read-out: Inhibitory effect (%) on tumor growth
Procedure: as §2

Cervical cancer = test: cells; details: Homo sapiens, 48 h, read-out: Inhibitory effect (%) on tumor growth
Procedure: as §2

Lung cancer = test: cells; details: Homo sapiens, 48 h, read-out: Inhibitory effect (%) on tumor growth
Procedure: as §2

Sarcoma = test: cells; details: Homo sapiens, 48 h, read-out: Inhibitory effect (%) on tumor growth
Procedure: as §2

Prostate cancer = test: cells; details: Homo sapiens, 48 h, read-out: Inhibitory effect (%) on tumor growth
Procedure: as §2

Hemangioma = test: cells; details: Homo sapiens, 48 h, read-out: Inhibitory effect (%) on tumor growth
Procedure: as §2

Head and neck cancer = test: cells; details: Homo sapiens, 48 h, read-out: Inhibitory effect (%) on tumor growth
Procedure: as §2

Molecule | Content of TGF-β1 in serum versus model group (TGF-β1) | Inhibition of proliferation (in words) [1] | Optical density value, 12 h [1] | Optical density value, 24 h [1] | Optical density value, 48 h [1] | Expression of HYP content in tissue versus model group (HYP) | Survival rate (%) [2] [%] | Inhibition of proliferation of cardiac fibroblasts of rats (in words) [3] | Optical density value, 12 h [3] | Optical density value, 24 h [3] | Optical density value, 48 h [3] | further results
LSKLGGGGSDKPGGGGTSLDASIIWAMMQN [Polypeptide V, Leu-Ser-Lys-Leu-linker-Ser-Asp-Lys-Pro-linker-Thr-Ser-Leu-Asp-Ala-Ser-Ile-Ile-Trp-Ala-Met-Met-Gln-Asn] | highly significantly different from the model group (**P<0.01) | could inhibit the proliferation | 0.462 ± 0.004 | 0.477 ± 0.015 | 0.618 ± 0.015 | highly significantly different from the model group (*P<0.05) | 70 | could inhibit the proliferation | 0.357 ± 0.024 | 0.397 ± 0.015 | 0.588 ± 0.019 | 
CC(=O)O[C@@]12CO[C@@H]1C[C@H](O)[C@@]1(C)C(=O)[C@H](O)C3=C(C)[C@@H](OC(=O)[C@H](O)[C@@H](NC(=O)OC(C)(C)C)c4ccccc4)C[C@@](O)([C@@H](OC(=O)c4ccccc4)[C@H]21)C3(C)C [Docetaxel] |  |  |  |  |  |  |  |  |  |  |  | inhibition at 1 µM (Ovarian cancer): 62.8 ± 20.2%; inhibition at 1 µM (Uterus cancer): 57.2 ± 12.3%; inhibition at 1 µM (Brain cancer): 68.1 ± 10.3%; inhibition at 1 µM (Melanoma): 68.4 ± 6.23%; inhibition at 1 µM (Kidney cancer): 75.5 ± 10.2%; inhibition at 1 µM (Pancreatic cancer): 76.7 ± 10.1%; inhibition at 1 µM (Thyroid cancer): 73.2 ± 19.3%; inhibition at 1 µM (Esophageal cancer): 64.4 ± 8.06%; inhibition at 1 µM (Breast cancer): 65.1 ± 10.7%; inhibition at 1 µM (Gastric cancer): 74.2 ± 6.38%; inhibition at 1 µM (Colorectal cancer): 53.5 ± 10.4%; inhibition at 1 µM (Liver cancer): 74.2 ± 11.7%; inhibition at 1 µM (Cervical cancer): 66.6 ± 11.3%; inhibition at 1 µM (Lung cancer): 73.3 ± 7.03%; inhibition at 1 µM (Sarcoma): 62.5 ± 8.75%; inhibition at 1 µM (Prostate cancer): 78.4 ± 4.21%; inhibition at 1 µM (Hemangioma): 78.8 ± 6.16%; inhibition at 1 µM (Head and neck cancer): 62.5 ± 2.12%
Ac-SDKPGGGGLSKLGGGGTSLDASIIWAMMQN (N-terminus assumed) [Polypeptide I, Ser-Asp-Lys-Pro-linker-Leu-Ser-Lys-Leu-linker-Thr-Ser-Leu-Asp-Ala-Ser-Ile-Ile-Trp-Ala-Met-Met-Gln-Asn] | highly significantly different from the model group (***P<0.001) | could inhibit the proliferation | 0.452 ± 0.008 | 0.542 ± 0.03 | 0.680 ± 0.014 | highly significantly different from the model group (*P<0.05) | 90 | could inhibit the proliferation | 0.362 ± 0.006 | 0.402 ± 0.002 | 0.678 ± 0.002 | Survival rate compared with model group / positive drug group ([2]; in words): equivalent to that of the positive drug group
